± gives the standard deviation of the averaged measurements.
Key:
Settings in all cases: treatment time: 3 days
[1] = test system: UT-SCC-24A; test: drug sensitivity score (DSS); higher = more sensitive
Experimental: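 HNSCC cell lines (500 cells/well, 384-well) were cultured on plastic, on top of (2D) or embedded (3D) in Matrigel or human leiomyoma matrix Myogel (500 ug/mL; Myogel 3D mixed with rat collagen I). Cells were treated for 3 days with 5 ten-fold concentrations of each drug, and viability was read by CellTiter-Glo. Suffixes _1/_2/_3 on drug names are replicates.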

[2] = test system: UT-SCC-14; test: maximal % inhibition of viability relative to DMSO; higher = stronger effect
Experimental: (§1)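 HNSCC cell lines (500 cells/well, 384-well) were cultured on plastic, on top of (2D) or embedded (3D) in Matrigel or human leiomyoma matrix Myogel (500 ug/mL; Myogel 3D mixed with rat collagen I). Cells were treated for 3 days with 5 ten-fold concentrations of each drug, and viability was read by CellTiter-Glo. Viability was normalised to DMSO and benzethonium chloride controls and fitted with the FIMM DSRT pipeline to give IC50 (nM), maximal % inhibition and DSS. Suffixes _1/_2/_3 are replicates. Only inhibition-mode (IC50) fits are kept.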

[3] = test system: UT-SCC-42B; test: as above
Experimental: as §1

[4] = test system: UT-SCC-81; test: as above
Experimental: as §1

[5] = test system: UT-SCC-24A; test: as above
Experimental: (§2)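 HNSCC cell lines (500 cells/well, 384-well) were cultured on plastic, on top of (2D) or embedded (3D) in Matrigel or human leiomyoma matrix Myogel (500 ug/mL; Myogel 3D mixed with rat collagen I). Cells were treated for 3 days with 5 ten-fold concentrations of each drug, and viability was read by CellTiter-Glo. Viability was normalised to DMSO (0% inhibition) and 100 uM benzethonium chloride (100% inhibition) controls and fitted with the FIMM DSRT pipeline to give IC50 (nM), maximal % inhibition and the drug sensitivity score (DSS). Suffixes _1/_2/_3 on drug names are replicates.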

[6] = test system: UT-SCC-106A; test: drug sensitivity score (DSS); higher = more sensitive; extreme values may be limits of the assay
Method in brief: (§3)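 HPV-negative HNSCC cell lines were plated at 500 cells/well in 384-well plates, either on plastic, on wells coated with Matrigel or Myogel (500 µg/mL), or embedded in Matrigel or Myogel plus rat collagen I. Each compound was tested at five 10-fold concentrations over 3 days. Viability was measured by CellTiter-Glo 2.0 luminescence, and IC50, maximal inhibition and drug sensitivity score came from percent-inhibition dose–response curves fitted in the FIMM pipeline after normalisation to vehicle (0.1% DMSO) and cell-killing control wells.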

[7] = test system: UT-SCC-14; test: as above
Method in brief: as §3

[8] = test system: UT-SCC-24B; test: as above
Method in brief: as §3

[9] = test system: UT-SCC-28; test: as above
Method in brief: as §3

[10] = test system: UT-SCC-40; test: as above
Method in brief: as §3

[11] = test system: UT-SCC-42A; test: as above
Method in brief: as §3

[12] = test system: UT-SCC-42B; test: as above
Method in brief: as §3

[13] = test system: UT-SCC-44; test: as above
Method in brief: as §3

[14] = test system: UT-SCC-73; test: as above
Method in brief: as §3

[15] = test system: UT-SCC-81; test: as above
Method in brief: as §3

[16] = test system: UT-SCC-8; test: as above
Method in brief: as §3

[17] = test system: UT-SCC-24A; test: relative IC50 (midpoint of the fitted curve; maximal inhibition may be below 50%); higher = less potent
Experimental: as §2

[18] = culture condition: embedded in Matrigel
[19] = culture condition: embedded in Myogel + collagen I
[20] = culture condition: on top of Matrigel
[21] = culture condition: on top of Myogel
[22] = culture condition: plastic 2D (no matrix)

Q: Which drug sensitivity score [1, 18] does the source give for `Cn1cnc2c(F)c(Nc3ccc(Br)cc3F)c(C(=O)NOCCO)cc21` [Binimetinib] here?
A: Its drug sensitivity score is 24.4 ± 3.8 DSS.

Q: What about the drug sensitivity score [1, 19] of the same compound?
A: Its drug sensitivity score is 9.83 ± 4.3 DSS.

Q: And the drug sensitivity score [1, 20]?
A: Its drug sensitivity score is 19.9 ± 0.72 DSS.

Q: And the drug sensitivity score [1, 21]?
A: The drug sensitivity score was 6.9 ± 0.85 DSS.

Q: And the drug sensitivity score [1, 22]?
A: Its drug sensitivity score is 18.1 ± 0.64 DSS.

Q: What about the “maximal % inhibition of viability” value [2, 18] of the same compound?
A: The value was 29.8 ± 10%.

Q: And the “maximal % inhibition of viability” value [2, 19]?
A: The value was 33.8 ± 15%.

Q: And the “maximal % inhibition of viability” value [2, 20]?
A: Its value is 33.3 ± 9.7%.

Q: And the “maximal % inhibition of viability” value [2, 21]?
A: Its value is 32.4 ± 24%.

Q: What about the “maximal % inhibition of viability” value [2, 22] of the same compound?
A: Its value is 25.9 ± 25%.

Q: And the “maximal % inhibition of viability” value [3, 18]?
A: Its value is 66.2 ± 7.5%.

Q: And the “maximal % inhibition of viability” value [3, 20]?
A: Its value is 48.5 ± 15%.

Q: And the “maximal % inhibition of viability” value [3, 21]?
A: The value was 24.8 ± 7%.

Q: What about the “maximal % inhibition of viability” value [3, 22] of the same compound?
A: The value was 31.3 ± 8.6%.

Q: And the “maximal % inhibition of viability” value [4, 18]?
A: The value was 85.5 ± 1%.

Q: And the “maximal % inhibition of viability” value [4, 19]?
A: The value was 18.7 ± 4.7%.

Q: What about the “maximal % inhibition of viability” value [4, 20] of the same compound?
A: Its value is 76.3 ± 3.8%.

Q: And the “maximal % inhibition of viability” value [4, 21]?
A: Its value is 23.5 ± 3.9%.

Q: And the “maximal % inhibition of viability” value [4, 22]?
A: The value was 38.7 ± 2.1%.

Q: What about the “maximal % inhibition of viability” value [5, 18] of the same compound?
A: The value was 79.6 ± 1.9%.

Q: And the “maximal % inhibition of viability” value [5, 19]?
A: The value was 37 ± 7.2%.

Q: What about the “maximal % inhibition of viability” value [5, 20] of the same compound?
A: Its value is 72.5 ± 1.2%.

Q: And the “maximal % inhibition of viability” value [5, 21]?
A: The value was 35.6 ± 4.6%.

Q: And the “maximal % inhibition of viability” value [5, 22]?
A: Its value is 68.3 ± 1.5%.

Q: And the drug sensitivity score [6, 18]?
A: The drug sensitivity score was 11.8 ± 0.81 DSS.

Q: And the drug sensitivity score [6, 19]?
A: The drug sensitivity score was 0.567 ± 0.9 DSS.

Q: What about the drug sensitivity score [6, 20] of the same compound?
A: The drug sensitivity score was 12.8 ± 2.5 DSS.

Q: And the drug sensitivity score [6, 21]?
A: Its drug sensitivity score is 1.67 ± 0.47 DSS.

Q: What about the drug sensitivity score [6, 22] of the same compound?
A: The drug sensitivity score was 11.7 ± 0.51 DSS.

Q: What about the drug sensitivity score [7, 18] of the same compound?
A: The drug sensitivity score was 6 ± 4.4 DSS.

Q: What about the drug sensitivity score [7, 19] of the same compound?
A: The drug sensitivity score was 4.73 ± 3.5 DSS.

Q: And the drug sensitivity score [7, 20]?
A: The drug sensitivity score was 5.1 ± 3.6 DSS.

Q: What about the drug sensitivity score [7, 21] of the same compound?
A: The drug sensitivity score was 4.27 ± 4.4 DSS.

Q: What about the drug sensitivity score [7, 22] of the same compound?
A: Its drug sensitivity score is 2.27 ± 2 DSS.

Q: And the drug sensitivity score [8, 18]?
A: Its drug sensitivity score is 6.43 ± 1 DSS.

Q: What about the drug sensitivity score [8, 19] of the same compound?
A: Its drug sensitivity score is 6.03 ± 2.4 DSS.

Q: And the drug sensitivity score [8, 20]?
A: Its drug sensitivity score is 5.6 ± 0.53 DSS.

Q: And the drug sensitivity score [8, 21]?
A: Its drug sensitivity score is 2.7 ± 0.61 DSS.

Q: What about the drug sensitivity score [8, 22] of the same compound?
A: Its drug sensitivity score is 9.3 ± 1.2 DSS.

Q: What about the drug sensitivity score [9, 18] of the same compound?
A: The drug sensitivity score was 6.5 ± 2.1 DSS.

Q: What about the drug sensitivity score [9, 19] of the same compound?
A: Its drug sensitivity score is 0 DSS.

Q: And the drug sensitivity score [9, 20]?
A: The drug sensitivity score was 4.43 ± 1.8 DSS.

Q: And the drug sensitivity score [9, 22]?
A: The drug sensitivity score was 2.87 ± 2.4 DSS.

Q: And the drug sensitivity score [10, 18]?
A: The drug sensitivity score was 16.3 ± 2.6 DSS.

Q: And the drug sensitivity score [10, 19]?
A: Its drug sensitivity score is 10.8 ± 4.3 DSS.

Q: What about the drug sensitivity score [10, 20] of the same compound?
A: The drug sensitivity score was 11.7 ± 2.1 DSS.

Q: What about the drug sensitivity score [10, 21] of the same compound?
A: Its drug sensitivity score is 5.87 ± 1.8 DSS.

Q: And the drug sensitivity score [10, 22]?
A: The drug sensitivity score was 7.63 ± 2 DSS.

Q: And the drug sensitivity score [11, 18]?
A: Its drug sensitivity score is 11.2 ± 1.7 DSS.

Q: And the drug sensitivity score [11, 19]?
A: The drug sensitivity score was 5.2 ± 2.5 DSS.

Q: And the drug sensitivity score [11, 20]?
A: The drug sensitivity score was 12.8 ± 2.1 DSS.

Q: And the drug sensitivity score [11, 21]?
A: The drug sensitivity score was 5.1 ± 2.7 DSS.

Q: What about the drug sensitivity score [11, 22] of the same compound?
A: Its drug sensitivity score is 7.97 ± 0.65 DSS.

Q: What about the drug sensitivity score [12, 18] of the same compound?
A: The drug sensitivity score was 16 ± 0.97 DSS.

Q: What about the drug sensitivity score [12, 20] of the same compound?
A: The drug sensitivity score was 7.13 ± 3.2 DSS.

Q: And the drug sensitivity score [12, 21]?
A: Its drug sensitivity score is 1.77 ± 0.51 DSS.

Q: And the drug sensitivity score [12, 22]?
A: Its drug sensitivity score is 3.47 ± 0.32 DSS.

Q: And the drug sensitivity score [13, 18]?
A: Its drug sensitivity score is 13.9 ± 2.2 DSS.

Q: What about the drug sensitivity score [13, 19] of the same compound?
A: Its drug sensitivity score is 3.57 ± 1 DSS.

Q: And the drug sensitivity score [13, 20]?
A: Its drug sensitivity score is 11.4 ± 0.57 DSS.

Q: And the drug sensitivity score [13, 21]?
A: The drug sensitivity score was 5.07 ± 1.4 DSS.

Q: What about the drug sensitivity score [13, 22] of the same compound?
A: The drug sensitivity score was 7.77 ± 4.3 DSS.

Q: What about the drug sensitivity score [14, 18] of the same compound?
A: Its drug sensitivity score is 14.6 ± 0.67 DSS.

Q: What about the drug sensitivity score [14, 19] of the same compound?
A: Its drug sensitivity score is 9.93 ± 3.5 DSS.

Q: What about the drug sensitivity score [14, 20] of the same compound?
A: Its drug sensitivity score is 14.3 ± 0.8 DSS.

Q: What about the drug sensitivity score [14, 21] of the same compound?
A: Its drug sensitivity score is 8.03 ± 1.4 DSS.

Q: And the drug sensitivity score [14, 22]?
A: Its drug sensitivity score is 12 ± 1 DSS.

Q: And the drug sensitivity score [15, 18]?
A: The drug sensitivity score was 20.4 ± 0.21 DSS.

Q: And the drug sensitivity score [15, 19]?
A: The drug sensitivity score was 0.933 ± 0.55 DSS.

Q: What about the drug sensitivity score [15, 20] of the same compound?
A: Its drug sensitivity score is 11 ± 1.7 DSS.

Q: What about the drug sensitivity score [15, 21] of the same compound?
A: Its drug sensitivity score is 3.7 ± 1.1 DSS.

Q: What about the drug sensitivity score [15, 22] of the same compound?
A: The drug sensitivity score was 4.4 ± 0.69 DSS.

Q: What about the drug sensitivity score [16, 18] of the same compound?
A: Its drug sensitivity score is 5.73 ± 4.6 DSS.

Q: What about the drug sensitivity score [16, 19] of the same compound?
A: The drug sensitivity score was 1.97 ± 3.4 DSS.

Q: And the drug sensitivity score [16, 20]?
A: Its drug sensitivity score is 3.73 ± 2.5 DSS.

Q: What about the drug sensitivity score [16, 21] of the same compound?
A: Its drug sensitivity score is 4.67 ± 4.2 DSS.

Q: And the drug sensitivity score [16, 22]?
A: Its drug sensitivity score is 3.83 ± 3.4 DSS.

Q: And the “relative IC50” value [17, 20]?
A: Its value is 5.41 nM.

Q: What about the “relative IC50” value [17, 21] of the same compound?
A: Its value is 17.3 nM.

Q: What about the “relative IC50” value [17, 22] of the same compound?
A: The value was 6.48 nM.
